Assays:
Assay type in all cases: cell-based
[1] = tested on: Escherichia coli (10536 strain); assay: Antimicrobial efficacy, 15 seconds contact suspension test with plate count (Examples 1 and 3); conditions: for MBC (minimum biocidal concentration): Example 1 medium, lowest concentration giving complete kill after 15 seconds, upper boundary
Protocol: The efficacies of antimicrobial agents can be usefully compared by determining the Minimum Biocidal Concentration (MBC). The MBC is defined as the lowest absolute concentration of the particular active that provides complete kill (zero bacterial growth).
Antimicrobial efficacy is tested against a representative pathogenic bacterial organism, Gram negative Escherichia coli. Concentrations of actives are expressed in terms of the percentage weight/volume (% w/v) throughout Example 1.
An overnight culture of Escherichia coli (10536 strain) was prepared in 50 ml total volume of TSB broth, grown for ca. 18 hrs at 37° C. and shaken at 150 rpm. 1 ml of this overnight E. coli culture was transferred to 50 ml of fresh TSB broth and incubated at 37° C. at 150 rpm for ca. 4 hours. This culture was separated into equal volumes and centrifuged at 4000 rpm for 15 minutes, washed with sterile saline (0.85% NaCl), centrifuged once more and re-suspended in saline to give a final concentration of 0.8 OD620 equivalent to about 10^8 cells per milliliter for this particular organism. Here, OD620 indicates the absorbance of a sample in a cuvette of 1.0 cm path length at a wavelength of 620 nm. This bacterial stock was used for assaying against antimicrobial actives (in triplicate).
The following assay describes the testing of 8 materials using 6 dilutions across half of a 96-well micro titre plate (MTP). Using this approach it is possible to assay 16 actives (without replicates) with one full dilution plate, replicating this set up in two halves of the plate columns, 1-6 and 7-12.
1M solutions of the test actives were prepared in dimethylsulphoxide (DMSO).
Aliquots (270 μl) of the materials at 1.11 times the final concentration were dispensed into the wells of the MTP along one column (A1-H1). This MTP was labelled as the “Screening plate”.
In another MTP, labelled as the “Dilution plate”, 270 μl of D/E neutralising solution from DIFCO Composition was added to column 1. The composition of the neutralising solution was as follows: pancreatic digest of casein, 5.0 g/L; Yeast Extract, 2.5 g/L; Dextrose, 10 g/L, sodium thioglycollate, 1.0 g/L, sodium thiosulphate, 6.0 g/L; sodium bisulphite, 2.5 g/L; Polysorbate 80, 5.0 g/L; lecithin 7.0 g/L; bromocresol purple, 0.02 g/L with a pH in the range 7.6±0.2.
270 μl of tryptone diluent solution was added to all the remaining wells of the Dilution MTP (columns 2-6). […]

[2] = tested on: Escherichia coli (E. coli—ATCC #10536); assay: High resolution MBC synergy assay, microtiter plate, phosphate buffer containing 35% dipropylene glycol (Example 2); conditions: for ΣFBC: for the Ca/Cb pair of the same table line; for MBC of component alone (MBCA, MBCB): complete kill in 15 seconds, 35% DPG phosphate buffer
Protocol: The materials were sourced in the same way as for Example 1. Synergy tests were conducted using standard microtiter plate assays with phosphate buffer containing 35% dipropylene glycol (DPG). […] The MBC plate was inoculated one column at a time with the test microorganism. An aliquot of the inoculated well was transferred at 15 seconds to a plate containing a neutralizing agent (D/E Neutralizing Broth), mixed and held for 5 minutes before being transferred to a growth plate containing trypticase soy broth (TSB). The TSB plate was incubated at 37° C. and read for the presence/absence of growth at 24 hours. […] This microorganism is representative of natural contaminants in many consumer and industrial applications.

[3] = tested on: Escherichia coli (E. coli—ATCC #10536); assay: Automated assessment of efficacy in surfactant base, DeltaOD in D/E quench (Example 4); conditions: for MBC: in 2.85% sodium cocoyl glycinate + 1.85% sodium lauroamphoacetate solution at pH 10; for 15 second bactericidal efficacy in combination with thymol: in combination with thymol at concentrations lower than their MBC, same surfactant formulation, all 4 or 3 replicates, respectively
Protocol: In these examples, the efficacy of combinations of thymol and propen-2-yl-methyl-cyclohexanols of the invention were tested in a surfactant cleansing formulation comprising 2.85% sodium cocoyl glycinate and 1.85% sodium lauroamphoacetate. This corresponds to a 50% in use dilution with water of a typical neat formulation containing 5.7% cocoyl glycinate and 3.7% % sodium lauroamphoacetate during hand washing. Solutions were prepared such that the concentrations of the surfactant components and test actives were 1.1 times the final desired concentration in order to allow for dilution with the bacterial inoculum in the test. The solutions were manually adjusted to pH 10.0 by dropwise addition of sodium hydroxide solution, as measured with a pH meter at ambient temperature. Solutions of the thymol and/or propen-2-yl-methyl-cyclohexanols of the invention were prepared at a maximum of 24 hours before testing. The same thymol and propen-2-yl-methyl-cyclohexanols were tested as in Example 1.
The efficacy of the combinations of the present invention was determined against the same bacterium as in Example 1, Escherichia coli (E. coli—ATCC #10536), at a concentration of approximately 1×10^8 bacteria per mL.
Tests were conducted using standard microtiter plate assays using an automated liquid handling system. 270 μl of the surfactant test solution was pipetted into each well of the microtitre plate (Nunc F Gamma Irradiated 96F untreated microtitre plates of clear polystyrene) and 30 μl of the bacterial suspension was then added. After exactly 15 seconds of bacterial exposure, a 30 μl volume of bacterial cells was withdrawn and transferred to 270 μl of D/E quench solution. After 5 minutes in the D/E quench, the optical density (OD) was measured for each plate in turn at two specific wavelengths (450 nm and 590 nm). These provide a dual check of antimicrobial activity, as the OD450 reading is specific for the yellow colour of D/E quench when bacterial growth is observed, whereas OD590 is specific for the initial purple colour of the D/E quench which is retained if no bacterial growth is observed. […] Delta OD values were calculated by subtracting […] at time=16 hours. […] To identify antibacterially efficacious systems (those preventing appreciable bacterial growth after incubation), the following threshold changes in OD readings have been adopted: if (1). OD450 increases by less than 0.2 absorbance unit (AU) on incubation and (2). […] The number of replicate wells showing either bacterial growth or no growth is also readily assessed by eye by following the colour change. […]
In each case, binary mixtures were assessed in the weight to weight ratio of thymol to propen-2-yl-methyl-cyclohexanols of 1:2.5.

SMILES | MBC ([1]; Example 3, protocol of Example 1) [% w/v] | reduction of thymol concentration required for complete kill ([1]; combination with […] w/v 2-methyl-5-(propen-2-yl)-cyclohexanol versus thymol in isolation) [fold] | ΣFBC ([2]; Table 7) | MBC of component alone (MBCA, MBCB) ([2]; Table 7 series) [weight %] | ΣFBC ([2]; Table 8) | MBC (minimum biocidal concentration) [1] [% w/v] | MBC [3] [% w/v] | 15 second bactericidal efficacy in combination with thymol [3] | MBC of component alone (MBCA, MBCB) ([2]; Table 8 series) [weight %]
C=C(C)[C@@H]1CC[C@@H](C)[C@@H](O)C1 [(1S,2R,5R)-2-methyl-5-(1-methylethenyl)-cyclohexanol] | 0.3 |  |  |  |  |  |  |  | 
Cc1ccc(C(C)C)c(O)c1 [thymol, 2-isopropyl-5-methylphenol, reference compound] |  | 4 | 1.00 | 0.2 | 1.00 |  |  |  | 
C=C(C)C1CCC(C)C(O)C1 (stereo not drawn) [2-methyl-5-(propen-2-yl)-cyclohexanol] |  |  | 1.00 | 0.5 |  | 0.3 | >0.5 | complete kill | 
C=C(C)[C@@H]1CC[C@@H](C)C[C@H]1O [5-methyl-2-(propen-2-yl)-cyclohexanol, (1R,2S,5R)-5-methyl-2-(propen-2-yl)-cyclohexanol] |  |  |  |  | 1.00 | 0.3 | >0.5 | complete kill | 0.5

— US9339477B2, “Antimicrobial composition” (Rohm and Haas Company, priority 2011, dated 2016)
